Experimental data published in ChEMBL document CHEMBL3885861, “Open TG-GATES”.

Species: Rattus norvegicus
Assay: Open TG-GATES - Regimen: Single
Type: toxicity, organism-based, Sprague-Dawley
Parameters: regimen Single, gender Male, age 6 weeks
Settings: in vivo, iv, route intravenous injection; for Eos / Fbg / Ht / Lym / MCH / MCHC / MCV / Mono / PT / Plat / RBC / Ret / Bas / Hb / Neu: tissue Blood; for KIDNEY_L / KIDNEY_R / KIDNEY_TOTAL: tissue Kidney; for LIVER: tissue Liver; for ALP / ALT / AST / CRE / DBIL / GLC / K / Na / RALB / TBIL / TC / TG / TP / gamma-GTP / LDH: tissue Plasma
[1] = 3 mg/kg, 3 h, dose level Middle
[2] = 3 mg/kg, 6 h, dose level Middle
[3] = 3 mg/kg, 9 h, dose level Middle
[4] = 3 mg/kg, 24 h, dose level Middle
[5] = 10 mg/kg, 24 h, dose level High

## COc1cccc2c1C(=O)c1c(O)c3c(c(O)c1C2=O)C[C@@](O)(C(=O)CO)C[C@@H]3O[C@H]1C[C@H](N)[C@H](O)[C@H](C)O1 [DOXORUBICIN]
[1]
  Eos: 0.6%
  Fbg: 260.4 mg/dL
  Ht: 38%
  Lym: 78.6%
  MCH: 21.6 pg
  MCHC: 34.7%
  MCV: 62.4 fL
  Mono: 3.8%
  PT: 16.2 s
  Plat: 113.3 x10_4/uL
  RBC: 609.6 x10_4/ul
  Ret: 6.7%
  KIDNEY_L: 0.9 g
  KIDNEY_R: 0.9 g
  KIDNEY_TOTAL: 1.8 g
  LIVER: 9.4 g
  ALP: 1266.2 IU/L
  ALT: 43.2 IU/L
  AST: 80.2 IU/L
  CRE: 0.2 mg/dL
  DBIL: 0.002 mg/dL
  GLC: 174.2 mg/dL
  K: 4.1 meq/L
  Na: 141.2 meq/L
  RALB: 3 g/dL
  TBIL: 0.022 mg/dL
  TC: 65.6 mg/dL
  TG: 99.4 mg/dL
  TP: 5.1 g/dL
  gamma-GTP: 1 IU/L
[2]
  TERMINAL_BW: 208.1 g
  Bas: 0%
  Eos: 0.8%
  Fbg: 294 mg/dL
  Ht: 37.7%
  Lym: 79%
  MCH: 21.7 pg
  MCHC: 34.3%
  MCV: 63.3 fL
  Mono: 4.2%
  PT: 16 s
  Plat: 130.3 x10_4/uL
  RBC: 595.4 x10_4/ul
  Ret: 7%
  KIDNEY_L: 0.9 g
  KIDNEY_R: 0.9 g
  KIDNEY_TOTAL: 1.8 g
  LIVER: 8.4 g
  ALP: 1404.2 IU/L
  AST: 77.2 IU/L
  CRE: 0.1 mg/dL
  DBIL: 0.002 mg/dL
  GLC: 177 mg/dL
  K: 4 meq/L
  LDH: 128.2 IU/L
  Na: 140.6 meq/L
  RALB: 2.9 g/dL
  TBIL: 0.032 mg/dL
  TC: 73.2 mg/dL
  TG: 59.6 mg/dL
  TP: 5.1 g/dL
  gamma-GTP: 1.8 IU/L
[3]
  TERMINAL_BW: 210 g
  Bas: 0%
  Eos: 0.6%
  Fbg: 280.6 mg/dL
  Hb: 13 g/dL
  Ht: 38.2%
  Lym: 76%
  MCH: 21.1 pg
  MCHC: 34.2%
  MCV: 61.8 fL
  Mono: 4.2%
  Neu: 18%
  PT: 15.8 s
  Plat: 117 x10_4/uL
  RBC: 617.6 x10_4/ul
  Ret: 6.9%
  KIDNEY_L: 0.9 g
  KIDNEY_R: 0.9 g
  KIDNEY_TOTAL: 1.8 g
  LIVER: 8.1 g
  ALP: 1233.4 IU/L
  ALT: 33.2 IU/L
  AST: 69.2 IU/L
  CRE: 0.1 mg/dL
  DBIL: 0 mg/dL
  GLC: 186.8 mg/dL
  K: 4.3 meq/L
  Na: 140.6 meq/L
  RALB: 2.8 g/dL
  TBIL: 0.018 mg/dL
  TC: 71 mg/dL
  TG: 70.2 mg/dL
  TP: 5.1 g/dL
  gamma-GTP: 1.2 IU/L
[4]
  TERMINAL_BW: 215.4 g
  Bas: 0%
  Eos: 0.2%
  Fbg: 277.8 mg/dL
  Hb: 13.4 g/dL
  Ht: 37.4%
  Lym: 80.8%
  MCH: 21.6 pg
  MCHC: 35.7%
  MCV: 60.4 fL
  Mono: 4%
  Neu: 13.2%
  PT: 16.6 s
  Plat: 118.9 x10_4/uL
  RBC: 620 x10_4/ul
  Ret: 4.5%
  KIDNEY_L: 0.9 g
  KIDNEY_R: 0.9 g
  KIDNEY_TOTAL: 1.9 g
  ALP: 1504.4 IU/L
  AST: 68.2 IU/L
  CRE: 0.2 mg/dL
  DBIL: 0.002 mg/dL
  GLC: 191.4 mg/dL
  K: 4.5 meq/L
  LDH: 124.6 IU/L
  Na: 143 meq/L
  RALB: 3 g/dL
  TBIL: 0.018 mg/dL
  TC: 75 mg/dL
  TG: 88.6 mg/dL
  TP: 5.2 g/dL
  gamma-GTP: 1 IU/L
10 mg/kg, 3 h, dose level High
  TERMINAL_BW: 211.4 g
  Bas: 0%
  Eos: 0.6%
  Fbg: 275.8 mg/dL
  Ht: 37.5%
  Lym: 60.4%
  MCH: 21.8 pg
  MCHC: 34.9%
  MCV: 62.3 fL
  Mono: 8.8%
  Neu: 27.4%
  PT: 16.5 s
  Plat: 121.7 x10_4/uL
  RBC: 603 x10_4/ul
  Ret: 6.2%
  KIDNEY_L: 0.9 g
  KIDNEY_R: 0.9 g
  KIDNEY_TOTAL: 1.9 g
  LIVER: 9.3 g
  ALP: 1462.4 IU/L
  ALT: 43 IU/L
  AST: 86.6 IU/L
  CRE: 0.1 mg/dL
  DBIL: 0 mg/dL
  GLC: 171.4 mg/dL
  K: 4.6 meq/L
  LDH: 187.2 IU/L
  Na: 141.4 meq/L
  RALB: 2.9 g/dL
  TBIL: 0.008 mg/dL
  TC: 75.4 mg/dL
  TG: 140 mg/dL
  TP: 5.1 g/dL
  gamma-GTP: 1.6 IU/L
10 mg/kg, 6 h, dose level High
  TERMINAL_BW: 205.6 g
  Bas: 0%
  Eos: 0.2%
  Fbg: 275.8 mg/dL
  Ht: 38%
  Lym: 64%
  MCH: 21.6 pg
  MCHC: 34%
  MCV: 63.4 fL
  Mono: 6.4%
  Neu: 26.4%
  PT: 16.2 s
  Plat: 118.6 x10_4/uL
  RBC: 599 x10_4/ul
  Ret: 6.9%
  KIDNEY_L: 0.9 g
  KIDNEY_R: 0.9 g
  KIDNEY_TOTAL: 1.8 g
  LIVER: 8.7 g
  ALP: 1468.4 IU/L
  AST: 86.4 IU/L
  CRE: 0.2 mg/dL
  DBIL: 0 mg/dL
  GLC: 190.8 mg/dL
  K: 4 meq/L
  LDH: 180 IU/L
  Na: 141 meq/L
  RALB: 2.9 g/dL
  TBIL: 0.036 mg/dL
  TC: 69.4 mg/dL
  TG: 54.4 mg/dL
  TP: 5.1 g/dL
  gamma-GTP: 1.6 IU/L
10 mg/kg, 9 h, dose level High
  TERMINAL_BW: 206.9 g
  Bas: 0%
  Eos: 0.4%
  Fbg: 279.2 mg/dL
  Hb: 13 g/dL
  Ht: 38.2%
  Lym: 56.2%
  MCH: 21.3 pg
  MCHC: 34.1%
  MCV: 62.5 fL
  Mono: 5.6%
  Neu: 35.4%
  PT: 15.9 s
  Plat: 118.9 x10_4/uL
  RBC: 611.6 x10_4/ul
  Ret: 6.1%
  KIDNEY_L: 0.9 g
  KIDNEY_R: 0.9 g
  KIDNEY_TOTAL: 1.9 g
  LIVER: 8.2 g
  ALP: 1273.6 IU/L
  AST: 84.2 IU/L
  CRE: 0.1 mg/dL
  DBIL: 0.002 mg/dL
  GLC: 186.2 mg/dL
  K: 4.1 meq/L
  Na: 139.6 meq/L
  RALB: 3 g/dL
  TBIL: 0.036 mg/dL
  TC: 68.4 mg/dL
  TG: 56.8 mg/dL
  TP: 5.2 g/dL
  gamma-GTP: 1.2 IU/L
[5]
  TERMINAL_BW: 206.3 g
  Bas: 0%
  Eos: 0.8%
  Fbg: 323 mg/dL
  Ht: 37.9%
  Lym: 74.2%
  MCH: 22.1 pg
  MCHC: 35.9%
  MCV: 61.6 fL
  Mono: 3%
  Neu: 20.8%
  PT: 15.9 s
  Plat: 131.1 x10_4/uL
  RBC: 615.6 x10_4/ul
  Ret: 3.2%
  KIDNEY_L: 0.9 g
  KIDNEY_R: 0.9 g
  KIDNEY_TOTAL: 1.8 g
  LIVER: 9.1 g
  ALP: 1298.4 IU/L
  ALT: 28 IU/L
  CRE: 0.2 mg/dL
  DBIL: 0 mg/dL
  GLC: 208.8 mg/dL
  K: 4.9 meq/L
  LDH: 129.2 IU/L
  Na: 141.2 meq/L
  RALB: 2.9 g/dL
  TBIL: 0.014 mg/dL
  TC: 82.4 mg/dL
  TG: 60 mg/dL
  TP: 5.2 g/dL
  gamma-GTP: 1.4 IU/L
